Measurements from patent publication US4327097A, “Novel penicillins” (Toyama Chemical Co., Ltd., priority 1974, dated 1982).
In brackets after ≈: the same amount, converted by molar mass.

Columns and labels:
Klebsiella pneumoniae [1] = assay: MIC, plate method, standard strains; type: cell-based; conditions: unit assumed
Protocol: (§1) The minimum inhibitory concentration (MIC) was determined by the plate method disclosed in "Chemotherapy" (Japan), Vol. 16, (1968), pages 98-99. The culture medium used was a Heart infusion agar (pH 7.4). The number of the cells per plate used in the inoculum was 10^4 (10^6 cells/ml).

Proteus vulgaris 3027 = assay: MIC, plate method, standard strains; type: cell-based; conditions: unit assumed
Protocol: as §1

Escherichia coli NIHJ = assay: MIC, plate method, standard strains; type: cell-based; conditions: unit assumed; for MIC Esche--richin coil NIHJ: Table 3, standard strain; for MIC Escherichia coli NIHJ: Table 4, standard strain
Protocol: as §1

[2] = system: Pseudomonas aeruginosa I.F.O.; assay: MIC, plate method, standard strains; type: cell-based; conditions: unit assumed; for MIC Pseudomonas aeruginosa I.F.C: Table 3, standard strain; for MIC Pseudomonas aeruginosa I.F.O.: Table 4, standard strain
Protocol: as §1

[3] = system: Staphylococcus aureus 209p; assay: MIC, plate method, standard strains; type: cell-based; conditions: unit assumed
Protocol: as §1

[4] = system: β-lactamase, Pseudomonas aeruginosa GN 238; assay: Resistant activity against β-lactamase, iodometric assay; type: biochemical; conditions: β-lactamase from Pseudomonas aeruginosa GN 238; Potassium Penicillin G = 100
Protocol: (3) Resistant activity against β-lactamase, Pseudomonas aerugionsa GN 238:
The resistant activity of each compound against β-lactamase was measured in the manner described below.
β-Lactamase was prepared from Pseudomonas aeruginosa GN 238. This microorganism was cultured in 100 ml of a medium containing 2 g of yeast extract, 10 g of polypeptone, 2 g of glucose, 7 g of disodium hydrogen phosphate, 2 g of potassium dihydrogen phosphate, 1.2 g of ammonium sulfate and 0.4 g of magnesium sulfate, per liter, in a 500-ml Erlenmeyer flask for 6 hrs. at 37° C. with shaking. The resulting cells were collected by centrifugation (5,000 r.p.m.×10 min.), washed three times with 0.1 M phosphate buffer (pH 7.0). Subsequently, the cells were subjected to sonication (20 KHz, 20 min.) and then centrifuged at 15,000 r.p.m. for 60 min. By using the supernatant of enzyme fluid, the resistance of each compound against β-lactamase was determined by the iodometric assay method. Each numeral shown in Table 7 is a relative activity value calculated by assuming as 100 the activity of the control Potassium Penicillin G.

Escherichia coli = assay: MIC against clinical isolates; type: cell-based; conditions: Table 5-2, clinical isolate; unit assumed
Shigella sonnei = assay: MIC against clinical isolates; type: cell-based; conditions: Table 5-5, clinical isolate; unit assumed
Protocol: as §1
(§2) MIC was determined in the same manner as in the preceding paragraph (1).

Shigella flexneri = assay: MIC against clinical isolates; type: cell-based; conditions: Table 5-5, clinical isolate; unit assumed
Protocol: as §1, §2

Pseudomonas aeruginosa = assay: MIC against clinical isolates; type: cell-based; conditions: Table 5-3, clinical isolate; unit assumed
Klebsiella pneumoniae [5] = assay: MIC against clinical isolates; type: cell-based; conditions: Table 5-4, clinical isolate; unit assumed
Staphylococcus aureus = assay: MIC against clinical isolates; type: cell-based; conditions: Table 5-1, clinical isolate; unit assumed
[6] = Table 3, standard strain, Heart infusion agar pH 7.4

How did the MIC Klebsiella pneumoniae (Klebsiella pneumoniae [1]; Table 3, standard strain) turn out when `CC1(C)SC2C(NC(=O)C(NC(=O)N3CCN(CCCl)C(=O)C3=O)c3ccccc3)C(=O)N2C1C(=O)O` (single isomer, unassigned) [Compound 44] was run?
Its MIC Klebsiella pneumoniae is under 1.57 µg/mL.

And the MIC Proteus vulgaris 3027 (Proteus vulgaris 3027; Table 3, standard strain)?
The MIC Proteus vulgaris 3027 was under 1.57 µg/mL.

And the MIC Esche--richin coil NIHJ (Escherichia coli NIHJ)?
The MIC Esche--richin coil NIHJ was under 1.57 µg/mL.

What about the MIC Pseudomonas aeruginosa I.F.C [2] of the same molecule?
The MIC Pseudomonas aeruginosa I.F.C was 6.25 µg/mL (≈ 11.3 µM).

What about the MIC Staphylococcus aureus 209p [3, 6] of the same molecule?
The MIC Staphylococcus aureus 209p was under 1.57 µg/mL.

With `Cc1csc(SCC2=C(C(=O)O)N3C(=O)C(NC(=O)C(NC(=O)N4CCN(C)C(=O)C4=O)c4ccccc4)C3SC2)n1` (single isomer, unassigned) [compound 71] as the molecule, how does the MIC Klebsiella pneumoniae (Klebsiella pneumoniae [1]; Table 4, standard strain) read?
The MIC Klebsiella pneumoniae was 1.56 µg/mL (≈ 2.47 µM).

What about the MIC Proteus vulgaris 3027 (Proteus vulgaris 3027; Table 4, standard strain) of the same molecule?
The MIC Proteus vulgaris 3027 was under 0.79 µg/mL.

And the MIC Escherichia coli NIHJ (Escherichia coli NIHJ)?
The MIC Escherichia coli NIHJ was under 0.79 µg/mL.

What about the MIC Pseudomonas aeruginosa I.F.O. [2] of the same molecule?
The MIC Pseudomonas aeruginosa I.F.O. was 50 µg/mL (≈ 79.3 µM).

What about the MIC Staphylococcus aureus 209p ([3]; Table 4, standard strain) of the same molecule?
Its MIC Staphylococcus aureus 209p is under 0.79 µg/mL.

How did the MIC Klebsiella pneumoniae (Klebsiella pneumoniae [1]; Table 4, standard strain) turn out when `CCN1CCN(C(=O)NC(C(=O)NC2C(=O)N3C(C(=O)O)=C(CSc4cnn[nH]4)CSC23)c2ccccc2)C(=O)C1=O` (single isomer, unassigned) [compound 75] was run?
Its MIC Klebsiella pneumoniae is 1.57 µg/mL (≈ 2.55 µM).

What about the MIC Proteus vulgaris 3027 (Proteus vulgaris 3027; Table 4, standard strain) of the same molecule?
The MIC Proteus vulgaris 3027 was 12.5 µg/mL (≈ 20.3 µM).

And the MIC Escherichia coli NIHJ (Escherichia coli NIHJ)?
The MIC Escherichia coli NIHJ was under 0.4 µg/mL.

What about the MIC Pseudomonas aeruginosa I.F.O. [2] of the same molecule?
The MIC Pseudomonas aeruginosa I.F.O. was 50 µg/mL (≈ 81.3 µM).

And the MIC Staphylococcus aureus 209p ([3]; Table 4, standard strain)?
Its MIC Staphylococcus aureus 209p is 1.57 µg/mL (≈ 2.55 µM).

Which MIC Klebsiella pneumoniae (Klebsiella pneumoniae [1]; Table 4, standard strain) does the source give for `CCN1CCN(C(=O)NC(C(=O)NC2C(=O)N3C(C(=O)O)=C(COC)CSC23)c2ccccc2)C(=O)C1=O` (single isomer, unassigned) [compound 80] here?
The MIC Klebsiella pneumoniae was 3.13 µg/mL (≈ 5.74 µM).

And the MIC Proteus vulgaris 3027 (Proteus vulgaris 3027; Table 4, standard strain)?
Its MIC Proteus vulgaris 3027 is 6.25 µg/mL (≈ 11.5 µM).

What about the MIC Escherichia coli NIHJ (Escherichia coli NIHJ) of the same molecule?
Its MIC Escherichia coli NIHJ is under 0.1 µg/mL.

And the MIC Pseudomonas aeruginosa I.F.O. [2]?
The MIC Pseudomonas aeruginosa I.F.O. was 50 µg/mL (≈ 91.6 µM).

What about the MIC Staphylococcus aureus 209p ([3]; Table 4, standard strain) of the same molecule?
Its MIC Staphylococcus aureus 209p is 0.79 µg/mL (≈ 1.45 µM).

Which MIC Klebsiella pneumoniae (Klebsiella pneumoniae [1]; Table 4, standard strain) does the source give for `Cn1nnnc1SCC1=C(C(=O)O)N2C(=O)C(NC(=O)C(NC(=O)N3CCN(CCO)C(=O)C3=O)c3ccc(O)cc3)C2SC1` (single isomer, unassigned) [compound 83] here?
The MIC Klebsiella pneumoniae was under 1.57 µg/mL.

And the MIC Proteus vulgaris 3027 (Proteus vulgaris 3027; Table 4, standard strain)?
Its MIC Proteus vulgaris 3027 is under 1.57 µg/mL.

What about the MIC Escherichia coli NIHJ (Escherichia coli NIHJ) of the same molecule?
The MIC Escherichia coli NIHJ was under 1.57 µg/mL.

And the MIC Pseudomonas aeruginosa I.F.O. [2]?
Its MIC Pseudomonas aeruginosa I.F.O. is 25 µg/mL (≈ 37.8 µM).

And the MIC Staphylococcus aureus 209p ([3]; Table 4, standard strain)?
The MIC Staphylococcus aureus 209p was 1.57 µg/mL (≈ 2.37 µM).

How did the “Relative activity (%), resistant activity against β-lactamase” value [4] turn out when `CCCCCCCCN1CCN(C(=O)N[C@@H](C(=O)N[C@@H]2C(=O)N3[C@@H]2SC(C)(C)[C@@H]3C(=O)O)c2ccccc2)CC1=O` [Compound 30] was run?
Its value is 3%.

With `CCN1CCN(C(=O)N[C@@H](C(=O)N[C@@H]2C(=O)N3[C@@H]2SC(C)(C)[C@@H]3C(=O)O)c2ccccc2)C(=O)C1=O` [Compound 36] as the molecule, how does the MIC Klebsiella pneumoniae (Klebsiella pneumoniae [1]; Table 3, standard strain) read?
The MIC Klebsiella pneumoniae was under 1.57 µg/mL.

And the MIC Proteus vulgaris 3027 (Proteus vulgaris 3027; Table 3, standard strain)?
Its MIC Proteus vulgaris 3027 is under 1.57 µg/mL.

What about the MIC Esche--richin coil NIHJ (Escherichia coli NIHJ) of the same molecule?
The MIC Esche--richin coil NIHJ was under 1.57 µg/mL.

What about the MIC Pseudomonas aeruginosa I.F.C [2] of the same molecule?
Its MIC Pseudomonas aeruginosa I.F.C is 6.25 µg/mL (≈ 12.1 µM).

And the MIC Staphylococcus aureus 209p [3, 6]?
Its MIC Staphylococcus aureus 209p is under 1.57 µg/mL.

And the “Relative activity (%), resistant activity against β-lactamase” value [4]?
The value was 14%.

And the MIC Escherichia coli GN 3435 (Escherichia coli)?
The MIC Escherichia coli GN 3435 was 1.57 µg/mL (≈ 3.03 µM).

And the MIC Escherichia coli GN 3452 (Escherichia coli)?
Its MIC Escherichia coli GN 3452 is 3.13 µg/mL (≈ 6.05 µM).

And the MIC Escherichia coli GN 3481 (Escherichia coli)?
The MIC Escherichia coli GN 3481 was 3.13 µg/mL (≈ 6.05 µM).

What about the MIC Escherichia coli K-1 (Escherichia coli) of the same molecule?
The MIC Escherichia coli K-1 was 3.13 µg/mL (≈ 6.05 µM).

And the MIC Escherichia coli K-2 (Escherichia coli)?
The MIC Escherichia coli K-2 was 3.13 µg/mL (≈ 6.05 µM).

And the MIC Escherichia coli K-4 (Escherichia coli)?
The MIC Escherichia coli K-4 was 1.57 µg/mL (≈ 3.03 µM).

And the MIC Shigella sonnei JS 11232 (Shigella sonnei)?
Its MIC Shigella sonnei JS 11232 is 50 µg/mL (≈ 96.6 µM).

And the MIC Shigella sonnei JS 11755 (Shigella sonnei)?
Its MIC Shigella sonnei JS 11755 is 3.13 µg/mL (≈ 6.05 µM).

And the MIC Shigella flexneri JS 11215 (Shigella flexneri)?
Its MIC Shigella flexneri JS 11215 is 100 µg/mL (≈ 193 µM).

What about the MIC Shigella flexneri JS 11839 (Shigella flexneri) of the same molecule?
The MIC Shigella flexneri JS 11839 was 3.13 µg/mL (≈ 6.05 µM).

What about the MIC Pseudomonas aeruginosa GN 82 (Pseudomonas aeruginosa) of the same molecule?
The MIC Pseudomonas aeruginosa GN 82 was 6.25 µg/mL (≈ 12.1 µM).

And the MIC Pseudomonas aeruginosa GN 163 (Pseudomonas aeruginosa)?
The MIC Pseudomonas aeruginosa GN 163 was 6.25 µg/mL (≈ 12.1 µM).

And the MIC Pseudomonas aeruginosa GN 221 (Pseudomonas aeruginosa)?
The MIC Pseudomonas aeruginosa GN 221 was 3.13 µg/mL (≈ 6.05 µM).

What about the MIC Pseudomonas aeruginosa GN 376 (Pseudomonas aeruginosa) of the same molecule?
Its MIC Pseudomonas aeruginosa GN 376 is 6.25 µg/mL (≈ 12.1 µM).

What about the MIC Pseudomonas aeruginosa GN 383 (Pseudomonas aeruginosa) of the same molecule?
The MIC Pseudomonas aeruginosa GN 383 was 6.25 µg/mL (≈ 12.1 µM).

And the MIC Pseudomonas aeruginosa GN 1091 (Pseudomonas aeruginosa)?
Its MIC Pseudomonas aeruginosa GN 1091 is 6.25 µg/mL (≈ 12.1 µM).

What about the MIC Klebsiella pneumoniae GN 917 (Klebsiella pneumoniae [5]) of the same molecule?
The MIC Klebsiella pneumoniae GN 917 was 6.25 µg/mL (≈ 12.1 µM).

What about the MIC Staphylococcus aureus F-2 (Staphylococcus aureus) of the same molecule?
The MIC Staphylococcus aureus F-2 was 3.13 µg/mL (≈ 6.05 µM).

And the MIC Staphylococcus aureus F-3 (Staphylococcus aureus)?
Its MIC Staphylococcus aureus F-3 is 1.57 µg/mL (≈ 3.03 µM).

And the MIC Staphylococcus aureus F-4 (Staphylococcus aureus)?
Its MIC Staphylococcus aureus F-4 is 6.25 µg/mL (≈ 12.1 µM).

And the MIC Staphylococcus aureus MS 8588 (Staphylococcus aureus)?
The MIC Staphylococcus aureus MS 8588 was 3.13 µg/mL (≈ 6.05 µM).

What about the MIC Staphylococcus aureus MS 8596 (Staphylococcus aureus) of the same molecule?
The MIC Staphylococcus aureus MS 8596 was 3.13 µg/mL (≈ 6.05 µM).

What about the MIC Staphylococcus aureus MS 8684 (Staphylococcus aureus) of the same molecule?
Its MIC Staphylococcus aureus MS 8684 is 3.13 µg/mL (≈ 6.05 µM).

And the MIC Staphylococcus aureus MS 8713 (Staphylococcus aureus)?
Its MIC Staphylococcus aureus MS 8713 is 6.25 µg/mL (≈ 12.1 µM).
